This note sets out measurements from PubChem BioAssay (NCI).

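Test compounds were applied to cells in 96-well plates for 48 hours at 5 doses. The concentration for full growth arrest is given as TGI.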 Some results are limits rather than exact numbers.

Test systems include LOX IMVI melanoma; HCT-116 colon; NCI-H460 lung; NCI-H23 lung; OVCAR-4 ovarian; OVCAR-8 ovarian; IGROV1 ovarian; SF-539 CNS; RXF 393 renal; HS 578T breast.
What all share (experiment): NCI-60 cell line screen, 48 h

Take `CC(C)OP(=S)(NC(=S)c1ccccc1)OC(C)C`: the TGI with LOX IMVI melanoma, in the assay with HCT-116 colon, in the assay on NCI-H460 lung, in the assay with NCI-H23 lung, in the assay on OVCAR-4 ovarian and in the assay on OVCAR-8 ovarian was above 100 µM in each case. Moreover, the TGI in the assay on IGROV1 ovarian and with SF-539 CNS was above 100 µM in each case.
As to `COc1cccc2c1OC1Sc3ccccc3-c3nn(-c4ccccc4)c-2c31` (stereo not given), the TGI in the assay on RXF 393 renal, in the assay with LOX IMVI melanoma, with HCT-116 colon, in the assay on NCI-H460 lung, in the assay with NCI-H23 lung and in the assay with OVCAR-8 ovarian was above 100 µM throughout. In addition, the TGI with IGROV1 ovarian and in the assay with SF-539 CNS was above 100 µM in each case.
Consider `Cc1nnc(N)nc1/C=C\c1ccc(Cl)cc1Cl`, for which the TGI was above 100 µM in the assay on RXF 393 renal; above 100 µM with LOX IMVI melanoma; 63.1 µM with HCT-116 colon; 99.2 µM in the assay on HS 578T breast; 42.8 µM with NCI-H460 lung; above 100 µM in the assay with NCI-H23 lung. In addition, the TGI was above 100 µM in the assay with OVCAR-4 ovarian, above 100 µM in the assay with OVCAR-8 ovarian and 39.4 µM with IGROV1 ovarian.
On to `CCC12CCCN(Cc3ccccc3)C1c1c(n(C)c3ccccc13)C(CO)C2` (stereo not given), for which the TGI in the assay with RXF 393 renal was above 257 µM; in the assay with LOX IMVI melanoma it was 82 µM; in the assay on HCT-116 colon, 53.6 µM; in the assay on NCI-H460 lung, 73.8 µM; in the assay with NCI-H23 lung it was 158 µM; in the assay with OVCAR-8 ovarian, 186 µM. Besides, the TGI was 218 µM with IGROV1 ovarian and 73.9 µM in the assay with SF-539 CNS.
Consider `CNC(=O)N(CCC#N)CCN(C(=O)NC)c1ccccc1`, for which the TGI in the assay on RXF 393 renal, in the assay with LOX IMVI melanoma, in the assay with HCT-116 colon, in the assay on NCI-H460 lung, in the assay on NCI-H23 lung and in the assay with OVCAR-4 ovarian was above 100 µM each time. In addition, the TGI in the assay on OVCAR-8 ovarian, in the assay on IGROV1 ovarian and in the assay with SF-539 CNS was above 100 µM throughout.
Turning to `Cc1cc(=O)oc2cc(OCCCOc3ccc4c(C)cc(=O)oc4c3)ccc12`, the TGI in the assay on RXF 393 renal, in the assay with LOX IMVI melanoma, with HCT-116 colon, in the assay on NCI-H460 lung, in the assay on NCI-H23 lung and with OVCAR-4 ovarian was above 100 µM each time. For the same molecule, the TGI in the assay with OVCAR-8 ovarian, in the assay on IGROV1 ovarian and in the assay with SF-539 CNS was above 100 µM in each case.
In the case of `CC(C)(C)N/N=C(\C(=O)Nc1cccc(Cl)c1)C1C(=O)Nc2ccccc2S1=O` (stereo not given), the TGI in the assay with RXF 393 renal, in the assay with LOX IMVI melanoma, in the assay with NCI-H460 lung, with NCI-H23 lung, in the assay on OVCAR-4 ovarian and in the assay with OVCAR-8 ovarian was above 100 µM each time. Moreover, the TGI with IGROV1 ovarian and in the assay with SF-539 CNS was above 100 µM throughout.
For the molecule `CN(C)CN1CSC(=S)N(CN(C)C)C1`, the TGI in the assay on RXF 393 renal, in the assay on LOX IMVI melanoma, in the assay with HCT-116 colon, with HS 578T breast, in the assay on NCI-H460 lung and in the assay with NCI-H23 lung was above 100 µM each time. Moreover, the TGI with OVCAR-4 ovarian, in the assay on OVCAR-8 ovarian and in the assay on IGROV1 ovarian was above 100 µM in each case.
On to `CCOC(=O)c1c(NS(=O)(=O)c2ccc(C)cc2)sc2c1CCCC2`, for which the TGI is 73 µM in the assay with HCT-116 colon; above 100 µM in the assay on HS 578T breast; 78.8 µM in the assay with NCI-H460 lung; 54 µM in the assay with NCI-H23 lung; above 100 µM with OVCAR-8 ovarian; above 100 µM in the assay on IGROV1 ovarian. The same molecule showed a TGI in the assay on SF-539 CNS above 100 µM.
For the molecule `O=c1c2c3c(sc2nc2n1N=CN(c1ccccc1)C2)CCCC3`, the TGI in the assay on RXF 393 renal, in the assay with LOX IMVI melanoma, with HCT-116 colon, in the assay with HS 578T breast, in the assay on NCI-H460 lung and in the assay with NCI-H23 lung was above 100 µM in each case. Also, the TGI in the assay with OVCAR-4 ovarian, with OVCAR-8 ovarian and in the assay on IGROV1 ovarian was above 100 µM in each case.
`COc1cccc2c1C(=O)c1c(O)c3c(c(O)c1C2=O)C[C@@](O)(C(C)=O)CC3S(=O)(=O)O` (stereo not given in full): the TGI in the assay with RXF 393 renal, in the assay on LOX IMVI melanoma, with HCT-116 colon, in the assay with NCI-H460 lung, in the assay with NCI-H23 lung and in the assay with OVCAR-4 ovarian was above 100 µM in each case. For the same molecule, the TGI in the assay with OVCAR-8 ovarian, in the assay with IGROV1 ovarian and in the assay with SF-539 CNS was above 100 µM in each case.
In the case of `CCc1cc(C)cc2[n+]1CC=C2`, the TGI in the assay on RXF 393 renal is above 100 µM; in the assay with LOX IMVI melanoma it was above 100 µM; in the assay on HCT-116 colon it was 48.2 µM; in the assay on NCI-H460 lung, 93.9 µM; with NCI-H23 lung, 53.8 µM; in the assay on OVCAR-4 ovarian it was above 100 µM. Further, the figures for the TGI in the assay on OVCAR-8 ovarian and with SF-539 CNS were above 100 µM and 95.6 µM, respectively.
On to `Nc1nc(NCCOCP(=O)(O)O)c([N+](=O)[O-])c(=O)[nH]1`, for which the TGI in the assay on RXF 393 renal, in the assay with LOX IMVI melanoma, in the assay on HCT-116 colon, in the assay with NCI-H460 lung, with NCI-H23 lung and with OVCAR-8 ovarian was above 100 µM throughout. Moreover, the TGI with IGROV1 ovarian and in the assay on SF-539 CNS was above 100 µM in each case.
On to `COc1cc(C2S/C(=C/c3ccccc3)C(=O)N2Cc2ccccc2)cc(OC)c1OC` (stereo not given), for which the TGI in the assay with LOX IMVI melanoma is above 100 µM; in the assay with HCT-116 colon, 47 µM; in the assay on HS 578T breast it was above 100 µM; in the assay on NCI-H23 lung it was above 100 µM; in the assay with OVCAR-4 ovarian it was above 100 µM; in the assay with OVCAR-8 ovarian, above 100 µM. The molecule further gave a TGI in the assay on IGROV1 ovarian above 100 µM.
Take `COC1=C[C@]2(CCC(=O)O2)[C@@H]2Cc3ccccc3[C@H](O)[C@@H]2C1=O`: the TGI with LOX IMVI melanoma was 87.3 µM; with HCT-116 colon, above 100 µM; with HS 578T breast it was above 100 µM; with NCI-H460 lung, above 100 µM; in the assay with NCI-H23 lung, above 100 µM; with OVCAR-4 ovarian it was above 100 µM. Further, the TGI in the assay with OVCAR-8 ovarian and in the assay with IGROV1 ovarian was above 100 µM throughout.
Turning to `O=c1cc(-c2ccccc2)[nH]c2ncccc12`, the TGI in the assay with LOX IMVI melanoma is above 100 µM; with HCT-116 colon, above 54 µM; in the assay on NCI-H460 lung it was above 52.1 µM; in the assay on OVCAR-4 ovarian it was above 100 µM; in the assay on OVCAR-8 ovarian, 4.01 µM; in the assay with IGROV1 ovarian it was above 100 µM.
